Results: PMC5698418 (Nature Communications, 2017)

How the values were obtained:
surface GluA1 = test: Surface AMPAR (GluA1) imaging along dendrites; assay type: cell-based, mouse; conditions: 16.7 µM, 6 h with BDNF, vs untreated and BDNF alone; for BDNF: BDNF alone vs baseline
Experimental: Our procedure to label surface AMPARs containing the GluA1 subunit was adapted from two reports[14],[61]. Precisely, DIV14 primary cortical neurons cultured on coverslips were rinsed once with room temperature PBS^MC (PBS containing 0.5 mM CaCl2, 1 mM MgCl2, and 4% sucrose). Live cells were then incubated for 30 min at room temperature with GluA1 primary antibody solution (PBS^MC with antibody against the extracellular N-terminus of GluA1 (EMD Millipore Corp, clone RH95, 5.0 µg ml^−1)). Next, cells were rinsed twice with ice-cold PBS^MC followed by fixation with 4% paraformaldehyde + 4% sucrose solution for 15 min at room temperature. After fixation, neurons were washed with regular PBS and then incubated overnight with Map2 primary antibody solution (PBS with 0.125% Triton X-100, 5% normal goat serum, and anti-Map2 antibody) to label dendrites. Next day, coverslips were washed with PBS, incubated with appropriate secondary antibodies for 1 h at room temperature, and finally mounted on glass slides with ProLong Antifade reagent (Invitrogen).
(§1) Quantification of surface GluA1 puncta was performed according to the following strategy. First, overlapping digital images of GluA1 and Map2 immunostainings were collected using a Zeiss AxioObserver Z1 inverted microscope and ×63 oil immersion objective. Second, thresholding and segmentation based on the Map2 images was used to remove GluA1 signals outside of dendritic processes. Importantly, the same background/foreground cutoff threshold was used for images of all experimental conditions. Third, the length of dendrites for each image set was measured and recorded. Finally, distinct GluA1 foreground objects along dendrites >5 pixels were counted using the particle analysis tool in ImageJ and presented as the average number of GluA1 puncta per µm of dendrite length for each experimental condition.

[1] = test system: Arc puncta in dendrites of primary cortical neurons; test: Arc puncta along Map2-labeled dendrites (immunocytochemistry); assay type: cell-based, mouse; conditions: 16.7 µM with BDNF, vs untreated and BDNF alone; for BDNF: BDNF alone vs untreated
Source text: Chemical structure of each compound is presented on top. b Graphs show mean (n = 5) Arc/β-actin ratio (±SEM) for cells treated as in a. […] Tukey’s HSD post hoc test, *p < 0.05; **p < 0.01, ***p < 0.005; ****p < 0.0001. […] Representative captures of DIV14 mouse primary cortical neurons from each experimental condition co-immunostained for Arc (red fluorophore) and Map2 (green fluorophore). White arrowheads show examples of discrete Arc puncta. […] Tukey’s HSD post hoc test, *p < 0.05; ***p < 0.005; ****p < 0.0001
(§2) Indirect immunofluorescence detection of antigens was carried out using cortical neurons cultured on poly-L-lysine/laminin-coated coverslips in 24-well plates at a density of 0.1 × 10^7 per well. After experimental treatment, cells were washed twice with PBS and fixed for 30 min at room temperature with 4% paraformaldehyde in PBS. After fixation, cells were washed twice with PBS, permeabilized with PBST (PBS + 0.25% Triton X-100) for 20 min, blocked in blocking solution (PBS + 5% normal goat serum) for another 30 min, and finally incubated overnight at 4 °C with the first primary antibody in blocking solution. The next day, coverslips were extensively washed with PBS and incubated for 2 h at room temperature in the appropriate fluorophore-conjugated secondary antibody solution (Alexa 488- or Alexa 594-conjugated secondary antibody (Molecular Probes, Invitrogen) in blocking solution). After washing with PBS, the coverslips were incubated again overnight in primary antibody solution for the second antigen, and the procedure for conjugation of the fluorophore-conjugated secondary antibody was repeated as above. Finally, cell nuclei were counterstained with 4′,6-diamidino-2-phenylindole (DAPI), and coverslips were mounted on glass slides with ProLong Antifade reagent (Invitrogen).
as §1

acetyl-H3K9 = test: Acetyl-H3K9 immunofluorescence in neuronal nuclei (multiplexed in screen); assay type: cell-based, mouse
Experimental: To increase the throughput of our pharmacological screening for modulators of Arc, the above mentioned assay was adapted to cultures of mouse primary cortical neurons in 96-well plates.
Screening of compounds in the chemogenomic library was carried out using DIV13 primary forebrain cortical neurons cultured on poly-L-lysine/laminin-coated 96-well plates (Ibidi USA, Madison, WI). Cells were seeded at a density of 30,000 cells per well and treated with the compound library and BDNF according to the experimental design presented in Fig. 3a. After experimental treatment, cells were processed for Arc and acetyl-H3K9 immunocytochemistry according to the protocol described above. Both antigens (Arc and acetyl-H3K9) were imaged using an IN Cell Analyzer 6000 imaging system and a ×40 objective. […] High-throughput quantification of nuclear Arc immunofluorescence signal was performed in a similar fashion than the low-throughput procedure described above but with the exception that acetyl-H3K9 was used as a nuclear mask to guide the automated quantification of nuclear Arc immunofluorescence signal.

HDAC3 = target: T1, HDAC3 (Homo sapiens, UniProt O15379); test: Biochemical HDAC assay (BPS Bioscience), HDAC3; conditions: 25 µM
T1 construct: purchased BPS Bioscience (San Diego, CA), contract assay service
T1 sequence (O15379 whole entry): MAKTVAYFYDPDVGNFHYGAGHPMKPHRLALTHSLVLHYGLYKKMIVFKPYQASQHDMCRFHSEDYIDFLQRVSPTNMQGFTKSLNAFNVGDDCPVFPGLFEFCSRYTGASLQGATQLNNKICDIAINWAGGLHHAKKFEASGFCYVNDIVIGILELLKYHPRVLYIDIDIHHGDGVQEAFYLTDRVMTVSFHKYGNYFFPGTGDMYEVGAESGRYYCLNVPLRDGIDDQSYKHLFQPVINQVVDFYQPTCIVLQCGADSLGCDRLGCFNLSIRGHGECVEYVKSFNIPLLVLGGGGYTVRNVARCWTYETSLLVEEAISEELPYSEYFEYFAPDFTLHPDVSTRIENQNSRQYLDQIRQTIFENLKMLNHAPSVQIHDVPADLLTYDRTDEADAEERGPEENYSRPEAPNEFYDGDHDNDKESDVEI
T1 sequence (Q9Y618 395-489 partner limits assumed): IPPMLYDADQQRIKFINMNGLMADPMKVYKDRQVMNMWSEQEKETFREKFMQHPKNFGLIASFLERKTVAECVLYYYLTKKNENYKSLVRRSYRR

HDAC2 = target: T2, HDAC2 (Homo sapiens, UniProt Q92769); test: Biochemical HDAC assay (BPS Bioscience), HDAC2; conditions: 25 µM
T2 construct: purchased BPS Bioscience (San Diego, CA), contract assay service
T2 sequence (Q92769 whole entry): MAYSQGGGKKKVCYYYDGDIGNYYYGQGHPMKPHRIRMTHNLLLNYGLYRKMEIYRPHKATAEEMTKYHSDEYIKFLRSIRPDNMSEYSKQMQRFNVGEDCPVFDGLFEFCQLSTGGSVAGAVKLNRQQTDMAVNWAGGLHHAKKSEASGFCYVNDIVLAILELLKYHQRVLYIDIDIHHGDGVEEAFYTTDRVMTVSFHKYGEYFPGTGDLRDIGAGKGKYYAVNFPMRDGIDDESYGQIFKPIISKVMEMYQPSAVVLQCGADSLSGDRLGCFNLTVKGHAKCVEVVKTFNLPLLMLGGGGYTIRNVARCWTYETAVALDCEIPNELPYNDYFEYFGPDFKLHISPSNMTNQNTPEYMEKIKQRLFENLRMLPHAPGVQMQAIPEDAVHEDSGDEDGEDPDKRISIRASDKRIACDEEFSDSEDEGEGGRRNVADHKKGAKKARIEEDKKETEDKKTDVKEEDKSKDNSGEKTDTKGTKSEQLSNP

HDAC1 = target: T3, HDAC1 (Homo sapiens, UniProt Q13547); test: Biochemical HDAC assay (BPS Bioscience), HDAC1; conditions: 25 µM
T3 construct: purchased BPS Bioscience (San Diego, CA), contract assay service
T3 sequence (Q13547 whole entry): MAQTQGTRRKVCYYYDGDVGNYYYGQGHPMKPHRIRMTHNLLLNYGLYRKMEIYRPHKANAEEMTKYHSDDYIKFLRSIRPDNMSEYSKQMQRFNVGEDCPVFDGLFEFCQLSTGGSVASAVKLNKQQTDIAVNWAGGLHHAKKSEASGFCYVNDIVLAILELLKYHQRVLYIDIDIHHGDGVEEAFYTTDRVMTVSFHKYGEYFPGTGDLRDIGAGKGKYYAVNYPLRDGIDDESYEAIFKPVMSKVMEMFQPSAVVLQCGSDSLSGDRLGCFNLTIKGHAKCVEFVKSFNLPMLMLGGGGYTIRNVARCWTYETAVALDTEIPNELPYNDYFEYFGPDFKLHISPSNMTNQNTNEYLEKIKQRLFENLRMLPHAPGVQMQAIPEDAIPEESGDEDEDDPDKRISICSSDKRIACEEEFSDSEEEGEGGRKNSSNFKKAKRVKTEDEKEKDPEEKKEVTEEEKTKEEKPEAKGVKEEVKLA

[2] = test system: BDNF-induced nuclear Arc expression in primary cortical neurons; test: Chemogenomic screen: high-content image-based assay of BDNF-induced nuclear Arc expression (96-well); assay type: cell-based, mouse
Outline: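 DIV13 mouse primary cortical neurons (30,000 cells/well) are treated with compound at 16.7 µM and BDNF, in three biological replicates. Arc and acetyl-H3K9 are immunostained and imaged at ×40, and nuclear Arc signal is quantified automatically using acetyl-H3K9 as the nuclear mask.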

[3] = test system: nuclear Arc in primary cortical neurons; test: Low-throughput nuclear Arc immunofluorescence assay (coverslips, Map2-positive cells); assay type: cell-based, mouse
Source text: Next, using fluorescent immunocytochemistry we assessed to what extent the observed induction of total Arc protein expression measured by western blotting corresponded to an accumulation of Arc in the nucleus of our cultured neurons. We chose to focus on nuclear Arc at this point based on the assumption that it would provide a robust and easily tractable phenotype for testing a large set of compounds with the help of a quantitative, single-cell level, high-content, image-based screen. […] On the other hand, many but not all of the neurons in cultures that were treated with BDNF for 6 h had high levels of Arc in their nuclei (Fig. 2b). […] Finally, to further evaluate the sensitivity of our method to quantify nuclear Arc expression, we tested four pharmacological inhibitors predicted to prevent BDNF-induced Arc expression. […] These experimental results with known mechanism of action compounds critically guided the design and interpretation of the chemogenomic screen performed next.
as §2
Cells cultured on coverslips from three independent biological replicates were imaged with an IN Cell Analyzer 6000 high-performance laser-based confocal imaging system and a ×40 objective (GE Healthcare Life Sciences, Marlborough, MA). Image preparation, assembly, and analysis were performed with ImageJ (NIH) and Photoshop CS. Change in contrast and evenness of the illumination was applied equally to all images presented in the study. The following procedure was used for low-throughput measurements. First, original raw tiff files were opened in ImageJ, the nucleus of all neurons in the image was located based on Map2 immunostaining, then average pixel intensity corresponding to Arc immunofluorescence was measured for a 30-pixel spot positioned at the center of the nuclear compartment. Second, for each measure of Arc nuclear immunofluorescence pixel intensity, a measure of background pixel intensity from the same image channel was acquired and subsequently subtracted from the Arc nuclear immunofluorescence pixel intensity value. Finally, Arc immunofluorescence signal from untreated samples was used to establish an objective threshold (two standard deviations above the nuclear Arc immunofluorescence signal averaged from a representative population of untreated neurons) and allow comparison of nuclear Arc expression between different experimental conditions.

Arc mRNA = Arc mRNA by real-time RT-PCR in primary cortical neurons; assay type: cell-based, mouse; conditions: 6 h BDNF plus U0126 10 µM or NSC23766 200 µM
Experimental: After experimental treatment, total RNA was isolated from primary cortical neuron cultures using the TRIzol method (Invitrogen). The concentration of total RNA was measured using a NanoDrop 1000 spectrophotometer (Thermo Fisher Scientific, Rockford, IL) and first-strand complementary DNA (cDNA) was synthesized using the iScript cDNA Synthesis Kit (Bio-Rad, Hercules, CA). Real-time PCRs were performed using gene-specific primers and monitored by quantification of SYBR Green I fluorescence using a Bio-Rad CFX96 Real-Time Detection System. Expression was normalized against Gapdh expression. The relative quantification from at least three biological replicates was performed using the comparative cycle threshold (∆∆CT) method.
Primers for real-time reverse transcription PCR experiments were: Arc, 5′-[…]-3′ (forward) and 5′-[…]-3′ (reverse); Map2, 5′-[…]-3′ (forward) and 5′-[…]-3′ (reverse); GluA1, 5′-[…]-3′ (forward) and 5′-[…]-3′ (reverse); GluA2, 5′-[…]-3′ (forward) and 5′-[…]-3′ (reverse); Gapdh, 5′-[…]-3′ (forward) and 5′-[…]-3′ (reverse).

Arc protein = test: Western blot of total Arc protein in primary cortical neurons; assay type: cell-based, mouse; conditions: 6 h; BDNF 100 ng ml−1 or 4AP 40 µM + Bic 50 µM
Experimental: Forebrains of E16.5 C57BL/6 mouse embryos were dissected and then dissociated in trypsin solution for 15 min followed by three washes with phosphate-buffered saline (PBS). Single-cell suspension was achieved by gentle pipet trituration. Neurons were seeded in poly-L-lysine/laminin-coated six-well plates at a density of 2 × 10^6 per well and maintained in neurobasal medium containing B27 supplement (2%, Invitrogen, Grand Island, NY), penicillin (50 units ml^−1, Invitrogen), streptomycin (50 µg ml^−1, Invitrogen), and glutamine (1 mM, Sigma). For experiments involving BDNF (EMD Millipore Corps, Billerica, MA), the stock solution (2 ng µl^−1 in water) was added directly to the culture medium at a final concentration of 100 ng ml^−1 for the indicated period of time.
For western blot analyses, cells were collected by scraping in ice-cold radioimmunoprecipitation assay (RIPA) buffer (50 mM Tris-HCl (pH 8.0), 300 mM NaCl, 0.5% Igepal-630, 0.5% deoxycholic acid, 0.1% SDS, 1 mM EDTA) supplemented with a cocktail of protease inhibitors (Complete Protease Inhibitor without EDTA, Roche Applied Science, Indianapolis, IN) and phosphatase inhibitors (phosphatase inhibitor cocktail A, Santa Cruz Biotechnology). One volume of 2× Laemmli buffer (100 mM Tris-HCl (pH 6.8), 4% SDS, 0.15% bromophenol blue, 20% glycerol, 200 mM β-mercaptoethanol) was added and the extracts were boiled for 5 min. Samples were adjusted to an equal concentration after protein concentrations were determined using the BCA assay (Pierce, Thermo Fisher Scientific). Lysates were separated using SDS–PAGE and transferred to a nitrocellulose membrane. After transfer, the membrane was blocked in TBST (Tris-buffered saline + 0.1% Tween 20) supplemented with 5% nonfat powdered milk and probed with the indicated primary antibody at 4 °C overnight. After washing with TBST, the membrane was incubated with the appropriate secondary antibody and visualized using enhanced chemiluminescence (ECL) reagents according to the manufacturer’s guidelines (Pierce, Thermo Fisher Scientific).
The following procedure was used to quantify western blots. First, equal quantity of protein lysate was analyzed by SDS–PAGE for each biological replicate. Second, the exposure time of the film to the ECL chemiluminescence was the same for each biological replicate. Third, all the exposed films were scanned on a Brother MFC-J485DW scanner in grayscale at a resolution of 300 dpi. Fourth, the look-up table (LUT) of the scanned tiff images was inverted and the intensity of each band was individually measured using the selection tool and the histogram function in Adobe Photoshop CC 2015 software. […]

Q: CC(=O)Nc1ccc(C(=O)Nc2ccccc2N)cc1 [CI-994] was tested. Which “surface GluA1 puncta per dendrite µm” value (surface GluA1) did it give?
A: The value was “significant decrease in surface GluA1 levels”.

Q: And the “number of Arc puncta in dendritic projections” value [1]?
A: Its value is “significantly greater number of Arc puncta”.

Q: What about the “impact on acetyl-H3K9 immunofluorescence (Z-score)” value (acetyl-H3K9; screen, 16.7 µM) of the same molecule?
A: The value was “strong impact”.

Q: What about the “inhibitory activity toward HDAC3” value (HDAC3) of the same molecule?
A: The value was “potent inhibition”.

Q: And the “inhibitory activity toward HDAC2” value (HDAC2)?
A: Its value is “potent inhibition”.

Q: And the “inhibitory activity toward HDAC1” value (HDAC1)?
A: The value was “potent inhibition”.

Q: What about the “occurrence of neuronal nuclei with above threshold nuclear Arc immunofluorescence signal, factor in relation to control (DMSO plus BDNF)” value ([2]; 16.7 µM, BDNF) of the same molecule?
A: The value was no less than 1.5.

Q: What about the “Percentage of cell with nuclear Arc immunostaining above 2σ threshold” value ([2]; chemogenomic (SMART) screen, BDNF-induced nuclear Arc expression, primary cortical neurons, BDNF control 19.5) of the same molecule?
A: The value was 29.1%.

Q: N#CC(=C(/N)Sc1ccccc1N)/C(C#N)=C(/N)Sc1ccccc1N [U0126] was tested. Which “effect on BDNF-induced increase of nuclear Arc” value ([3]; co-treated with BDNF 6 h, k252a 100 nM, ActD 2 ng ml−1, CHX 50 µg ml−1, U0126 10 µM) did it give?
A: Its value is “effectively prevented the increase of nuclear Arc”.

Q: And the “effect on BDNF-induced Arc mRNA expression (RT-qPCR)” value (Arc mRNA)?
A: Its value is “prevented BDNF-induced Arc expression”.

Q: How did the “effect on BDNF-induced Arc mRNA expression (RT-qPCR)” value (Arc mRNA) turn out when CCN(CC)CCCC(C)Nc1nc(C)cc(Nc2ccc3nc(C)cc(N)c3c2)n1 (centres unmarked) [NSC23766] was run?
A: The value was “prevented BDNF-induced Arc expression but not Rac1 inhibition by NSC23766”.

B1: BDNF: recombinant brain-derived neurotrophic factor, 100 ng ml−1 (protein, UniProt P23560 19-247, looked up)
Neurotrophic factor BDNF …: APMKEANIRGQGGLAYPGVRTHGTLESVNGPKAGSRGLTSLADTFEHVIEELLDEDQKVRPNEENNKDADLYTSRVMLSSQVPLEPPLLFLLEEYKNYLDAANMSMRVRRHSDPARRGELSVCDSISEWVTAADKKTAVDMSGGTVTVLEKVPVSKGQLKQYFYETKCNPMGYTKEGCRGIDKRHWNSQCRTTQSYVRALTMDSKKRIGWRFIRIDTSCVCTLTIKRGR
Q: B1 was tested. Which “surface GluA1 puncta per dendrite µm” value (surface GluA1) did it give?
A: Its value is “did not influence, in one way or the other, the number of GluA1 puncta”.

Q: And the “neurons with Arc-specific nuclear average pixel intensity above threshold (> 2σ of untreated)” value ([3]; BDNF 100 ng ml−1, 6 h, n = 331 neurons)?
A: The value was 17.5%.

Q: And the “neuronal nuclei with above threshold average nuclear Arc signal (> 2σ)” value ([3]; BDNF 24 h, n = 334)?
A: The value was 4.2%.

Q: And the “number of Arc puncta in dendritic projections” value [1]?
A: The value was “did not observe a significant difference”.

Q: And the “acetyl-H3K9 immunofluorescence intensity levels in primary cortical neurons” value (acetyl-H3K9; BDNF 6 h)?
A: The value was “unaffected”.

Q: What about the “Arc protein abundance vs untreated control (western blot)” value (Arc protein) of the same molecule?
A: The value was “significantly more Arc protein”.
